Experimental findings from patent publication US12599559B2, “CD1d-ligand-compound-containing liposome preparation having improved pharmacokinetics” (REGiMMUNE Corporation, priority 2020, dated 2026) are described below.

The data set in a line: pharmacokinetics in human clinical trials, plasma KRN7000 by LC-MS/MS. The class given is in vivo. The following applies: patients; for Cmax / AUC(0-t): plasma, iv. How it is done: In a phase I clinical trial, RGI-2001-001 was administered intravenously at a dose of 100 μg/kg as KRN7000 within 30 minutes after transplantation to six patients who had received hematopoietic stem cell transplantation. 2 mL of peripheral blood was collected before and 0.5, 1, 2, 4, 6, 8, 24, 48, 72, and 96 hours after transplantation, respectively, and plasma components were collected. KRN7000 in each plasma was separated and identified by liquid chromatography-mass spectrometry (LC-MS/MS).
Similarly, RGI-2001-003 was administered intravenously at a dose of 100 μg/kg as KRN7000 within 30 minutes after transplantation to seven patients who had received hematopoietic stem cell transplantation, and 2 mL of peripheral blood was collected before and 0.5, 2, 4, 6, 8, 24, and 48 hours after transplantation. Plasma components were collected, and plasma KRN7000 was separated and identified by LC-MS/M. These patients were treated with RGI-2001-003 at a dose of 100 μg/kg as KRN7000 intravenously once a week for 5 to 6 consecutive doses. For the administration on day 14, 2 mL of peripheral blood was collected before and 0.5 and 4 hours after administration, respectively, plasma components were collected, and plasma KRZN7000 was separated and identified by LC-MS/M. The NKT response and the number of activated Tregs (Ki-67+%) in patients treated with RGI-2001-003 administration were monitored over time.

Setting [1] is: 100 ug/kg, plasma KRN7000 after RGI-2001-003 iv 100 μg/kg weekly, Day 0.

In general, half-life refers to the time needed for the level to fall by half in the phase considered. A low value points to rapid decline. By Cmax is commonly meant the maximum level reached in the sampled fluid or tissue.

Like-named read-outs stand apart in the source and are kept apart here.

With `CCCCCCCCCCCCCCCCCCCCCCCCCC(=O)N[C@@H](CO[C@H]1OC(CO)[C@H](O)C(O)C1O)[C@H](O)[C@H](O)CCCCCCCCCCCCCC` (stereo partly drawn) [KRN7000, (2S,3S,4R)-1-o-(α-D-galactopyranosyl)-2-(N-hexacosanoylamino)-1,3,4-octadecanetriol], the concentration at 14 day (100 μg/kg as KRN7000, plasma KRN7000 after RGI-2001-003 iv 100 μg/kg weekly, Day 14, read-out: Cmin) was found to be 34.1 ng/mL. The compound also showed a half-life under setting [1] of 35.8 h. In addition, under “100 ug/kg, plasma KRN7000 after RGI-2001-003 iv 100 μg/kg weekly, Day 0, read-out: *Est. AUC0-inf”, the AUC(0-inf) was found to be 42500 ng·h/mL. The compound also returned a peak concentration (Cmax) under setting [1] of 881 ng/mL and a Cmax (100 ug/kg, plasma KRN7000 after RGI-2001-003 iv 100 μg/kg weekly, Day 14) of 570 ng/mL. The AUC(0-t) (100 ug/kg, plasma KRN7000 after RGI-2001-003 iv 100 μg/kg weekly, Day 0, read-out: AUC0-4) was 3000 ng·h/mL and the AUC(0-t) (100 ug/kg, plasma KRN7000 after RGI-2001-003 iv 100 μg/kg weekly, Day 14, read-out: AUC0-4) was found to be 1890 ng·h/mL.
